Experimental data published in patent publication US20230241178A1, “LONG ACTING GLP-1/GIP DUAL AGONISTS” (SUN PHARMACEUTICAL INDUSTRIES LIMITED, priority 2020, published 2023).
Marks after values point to notes of the source that are not given here.

Experiments:
[1] = test system: type 2 diabetic mouse (db/db) model; assay: Reduction of HbA1c in db/db type 2 diabetic mice after chronic treatment (HbA1c, insulin, triglycerides, food consumption, body weight); assay type: in vivo; details: for Cumulative Food Consumption Day 0-28 / Insulin / Triglycerides / Δ% HbA1c vs. DC / Body Weight (%) Day 28 vs. Baseline: db/db mice
Procedure: This study was performed in a type 2 diabetic mouse (db/db) model. […] All the treatments were injected subcutaneously every third day for 10 doses (q3d*10). % HbA1c, Insulin, Triglycerides levels were measured on Day 0, day 14 and day 28. Cumulative food intake from day 0-28 and % Change in body weight compared to day 0 was calculated on day 28.

GIPR = biological target: T1, GIPR (Homo sapiens, UniProt P48546); assay: cAMP assay (cAMP Hunter eXpress GPCR Assay) on GIPR-expressing cells; assay type: cell-based; details: read-out: half-maximal effective concentration, cellular cAMP
T1 construct: host or cells: GIPR-expressing cells of the cAMP Hunter eXpress GPCR Assay kit
T1 sequence (P48546 22-466): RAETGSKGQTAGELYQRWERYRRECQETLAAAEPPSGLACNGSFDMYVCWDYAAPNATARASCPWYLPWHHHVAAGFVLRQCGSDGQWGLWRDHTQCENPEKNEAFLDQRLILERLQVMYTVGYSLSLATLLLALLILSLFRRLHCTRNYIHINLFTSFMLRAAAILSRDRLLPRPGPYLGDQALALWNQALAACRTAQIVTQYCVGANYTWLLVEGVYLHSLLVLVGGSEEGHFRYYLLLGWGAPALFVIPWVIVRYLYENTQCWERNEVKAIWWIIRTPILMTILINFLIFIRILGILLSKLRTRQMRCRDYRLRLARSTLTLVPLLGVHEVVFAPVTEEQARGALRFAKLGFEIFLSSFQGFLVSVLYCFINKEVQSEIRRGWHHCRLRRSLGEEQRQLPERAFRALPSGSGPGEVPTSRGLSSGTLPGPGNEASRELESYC
Procedure: (§1) In-vitro potency determination was performed using cAMP assay. G protein coupled receptor (GPCR) activation following ligand binding initiates a series of second messenger cascades that results in a cellular response. Signaling by the GLP-1R and GIP-R involves activation of adenylate cyclase and cAMP production. Cellular cAMP production was determined using the cAMP Hunter™ eXpress GPCR Assay (Eurofins DiscoveRx).

[2] = test system: type 2 diabetic mouse (db/db) model; assay: Effect of Compound 2 and 7 on blood glucose, body weight and food consumption in mice, up to 72 hr (Tables 6, 7); assay type: in vivo; details: 10 nM/kg
Procedure: Similarly body weight changes and cumulative food consumption was measured at 72 hr post treatment.

[3] = test system: type 2 diabetic mouse (db/db) model; assay: Reduction in blood glucose and effect on body weight and food intake, single dose, db/db mice (Tables 4, 5); assay type: in vivo
Procedure: The effect of Compounds of present invention on blood glucose was studied on mice. This study was performed in a type 2 diabetic mouse (db/db) model. […] Baseline blood glucose was measured from all the animals. All animals were administered with its respective test item subcutaneously. […] Delta blood glucose (mM) was calculated. Similarly body weight changes and cumulative food consumption was measured at 96 hr post treatment.

GLP-1R = biological target: T2, GLP-1R (Homo sapiens, UniProt P43220); assay: cAMP assay (cAMP Hunter eXpress GPCR Assay) on GLP-1R-expressing cells; assay type: cell-based; details: read-out: half-maximal effective concentration, cellular cAMP
T2 construct: host or cells: GLP-1R-expressing cells of the cAMP Hunter eXpress GPCR Assay kit
Procedure: as §1

[4] = test system: type 2 diabetic mouse (db/db) model; assay: Reduction of HbA1c in db/db type 2 diabetic mice after chronic treatment (HbA1c, insulin, triglycerides, food consumption, body weight); assay type: in vivo; details: 9 nM/kg and 18 nM/kg dose
[5] = test system: type 2 diabetic mouse (db/db) model; assay: Effect on blood glucose, food intake and body weight, single s.c. dose 10 nM/kg, db/db mice (Tables 8, 9); assay type: in vivo; details: 10 nM/kg/s.c/single dose
Procedure: This study was performed in a type 2 diabetic mouse (db/db) model. […] Baseline blood glucose was measured from all the animals. All the animals were administered with test items subcutaneously. Blood glucose was measured at 4 hr, 12 hr, 24 hr, 48 hr, 72 hr and 96 hr post treatment. Delta blood glucose (mM) was calculated. Body weight changes and cumulative food consumption was measured at 96 hr post treatment. Similarly the effect of Compounds 11-15 on blood glucose, food intake and body weight was studied in a separate study except for Compound 13. The results are shown in Table 8 (effect on blood glucose) and Table 9 (effect on body weight and food consumption).

[6] = 6 nM/kg s.c., separate study n = 5

T2 sequence (P43220 24-463): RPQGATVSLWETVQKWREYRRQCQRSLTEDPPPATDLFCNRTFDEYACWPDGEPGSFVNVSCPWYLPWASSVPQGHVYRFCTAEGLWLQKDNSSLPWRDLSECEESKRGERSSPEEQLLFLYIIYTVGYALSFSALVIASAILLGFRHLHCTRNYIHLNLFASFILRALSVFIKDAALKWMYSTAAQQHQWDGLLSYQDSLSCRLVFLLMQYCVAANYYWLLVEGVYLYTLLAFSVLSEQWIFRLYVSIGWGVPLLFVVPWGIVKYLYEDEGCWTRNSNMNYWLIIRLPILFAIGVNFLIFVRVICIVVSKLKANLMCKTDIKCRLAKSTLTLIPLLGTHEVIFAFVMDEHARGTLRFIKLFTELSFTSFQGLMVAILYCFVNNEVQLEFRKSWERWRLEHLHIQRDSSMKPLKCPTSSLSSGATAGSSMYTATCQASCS

## CC[C@H](C)[C@H](NC(=O)[C@H](CC(C)C)NC(=O)[C@H](Cc1c[nH]c2ccccc12)NC(=O)[C@H](CCC(N)=O)NC(=O)[C@@H](NC(=O)[C@H](Cc1ccccc1)NC(=O)[C@H](C)NC(=O)[C@H](CCCCNC(=O)COCCOCCNC(=O)C(C)(C)NC(=O)CC[C@H](NC(=O)CCCCCCCCCCCCCCCCCCC(=O)O)C(=O)O)NC(=O)[C@H](CCC(N)=O)NC(=O)[C@H](C)NC(=O)[C@@H](NC(=O)[C@H](CCCCN)NC(=O)[C@H](CC(=O)O)NC(=O)[C@H](CC(C)C)NC(=O)C(C)(C)NC(=O)[C@@H](NC(=O)[C@H](CO)NC(=O)[C@H](Cc1ccc(O)cc1)NC(=O)[C@H](CC(=O)O)NC(=O)[C@H](CO)NC(=O)[C@@H](NC(=O)[C@H](Cc1ccccc1)NC(=O)[C@@H](NC(=O)CNC(=O)[C@H](CCC(=O)O)NC(=O)C(C)(C)NC(=O)[C@@H](N)Cc1ccc(O)cc1)[C@@H](C)O)[C@@H](C)O)[C@@H](C)CC)[C@@H](C)CC)C(C)C)C(=O)N[C@@H](C)C(=O)NCC(=O)NCC(=O)N1CCC[C@H]1C(=O)N[C@@H](CO)C(=O)N[C@@H](CO)C(=O)NCC(=O)N[C@@H](C)C(=O)N1CCC[C@H]1C(=O)N1CCC[C@H]1C(=O)N1CCC[C@H]1C(=O)N[C@@H](CO)C(N)=O [Compound 2]
[1]; 9 nM/kg, day 14
  insulin levels compared to the diabetic control group (in words): statistically significant increase in insulin levels
[1]; 4.5, 9 and 18 nM/kg
  triglycerides compared to the diabetic control group (in words): statistically significant lowering of triglycerides
[1]; 4.5, 9 and 18 nM/kg, day 14 and 28th day
  change in HbA1c compared to the diabetic control (in words): statistically significant change in HbA1c
[1]; 4.5, 9 and 18 nM/kg, day 28
  body weight compared to the diabetic control group (in words): statistically significant decrease in body weight
[1]; 4.5, 9 and 18 nm/kg, course of the study
  cumulative food consumption compared to the diabetic control group (in words): statistically significant reduction in cumulative food consumption
[1]; 4.5 nM/kg s.c. q3d*10
  Cumulative Food Consumption Day 0-28: 112.4
[1]; 9 nM/kg s.c. q3d*10
  Cumulative Food Consumption Day 0-28: 111.8
[1]; 18 nM/kg s.c. q3d*10
  Cumulative Food Consumption Day 0-28: 89.5
[1]; Day 14, 4.5 nM/kg s.c. q3d*10
  Insulin: 34.75 ng/mL
  Triglycerides: 218.7 mg/dL
  Δ% HbA1c vs. DC: −2.43*** %
[1]; Day 14, 9 nM/kg s.c. q3d*10
  Insulin: 69.63 ng/mL
  Triglycerides: 169.8 mg/dL
  Δ% HbA1c vs. DC: −2.90*** %
[1]; Day 14, 18 nM/kg s.c. q3d*10
  Insulin: 75.09 ng/mL
  Triglycerides: 172.4 mg/dL
  Δ% HbA1c vs. DC: −3.04*** %
[1]; Day 28, 4.5 nM/kg s.c. q3d*10
  Body Weight (%) Day 28 vs. Baseline: −7.0%
  Insulin: 33.44 ng/mL
  Triglycerides: 208.9 mg/dL
  Δ% HbA1c vs. DC: −3.64*** %
[1]; Day 28, 9 nM/kg s.c. q3d*10
  Body Weight (%) Day 28 vs. Baseline: −8.9%
  Insulin: 53.87 ng/mL
  Triglycerides: 147.4 mg/dL
  Δ% HbA1c vs. DC: −4.19*** %
[1]; Day 28, 18 nM/kg s.c. q3d*10
  Body Weight (%) Day 28 vs. Baseline: −9.3%
  Insulin: 76.93 ng/mL
  Triglycerides: 144.3 mg/dL
  Δ% HbA1c vs. DC: −4.25*** %
GIPR
  EC50: 2.3 nM
[2]
  time for which efficacy on blood glucose was maintained: 72 h
[2]; mice, n = 8
  % Body wt. change 72 hr. vs. 0 hr., Mean: −7.2*** %
  Cumulative Food Consumption (0-72 hr) (g), Mean: 8.4*** g
[2]; 4 hr post treatment, mice, n = 8
  Delta Blood Glucose (mM), Mean: -15.6 mM
[2]; 8 hr post treatment, mice, n = 8
  Delta Blood Glucose (mM), Mean: -16.3 mM
[2]; 12 hr post treatment, mice, n = 8
  Delta Blood Glucose (mM), Mean: -16.0 mM
[2]; 24 hr post treatment, mice, n = 8
  Delta Blood Glucose (mM), Mean: -14.6 mM
[2]; 72 hr post treatment, mice, n = 8
  Delta Blood Glucose (mM), Mean: -4.1 mM
[3]; 3 nM/kg s.c., n = 6 study
  Cumulative Food Intake (g) 0-96 hr, Mean: 14.6*** g
  Body Weight Change (%) 96 hr., Mean: −5*** %
[3]; [6]
  Cumulative Food Intake (g) 0-96 hr, Mean: 18.2 g
  Body Weight Change (%) 96 hr., Mean: −0.9%
[3]; 4 hr post treatment, @ 3 nM s.c., n = 6 study
  Delta Blood Glucose (mM), Mean: -12.6 mM
[3]; 4 hr post treatment, @ 6 nM s.c., separate study n = 5
  Delta Blood Glucose (mM), Mean: −14.4*** mM
[3]; 12 hr post treatment, @ 3 nM s.c., n = 6 study
  Delta Blood Glucose (mM), Mean: -10.6 mM
[3]; 12 hr post treatment, @ 6 nM s.c., separate study n = 5
  Delta Blood Glucose (mM), Mean: −18.0*** mM
[3]; 24 hr post treatment, @ 3 nM s.c., n = 6 study
  Delta Blood Glucose (mM), Mean: -8.3 mM
[3]; 24 hr post treatment, @ 6 nM s.c., separate study n = 5
  Delta Blood Glucose (mM), Mean: −16.9*** mM
[3]; 48 hr post treatment, @ 3 nM s.c., n = 6 study
  Delta Blood Glucose (mM), Mean: -7.3 mM
[3]; 48 hr post treatment, @ 6 nM s.c., separate study n = 5
  Delta Blood Glucose (mM), Mean: −8.9*** mM
[3]; 72 hr post treatment, @ 3 nM s.c., n = 6 study
  Delta Blood Glucose (mM), Mean: -4.7 mM
[3]; 72 hr post treatment, @ 6 nM s.c., separate study n = 5
  Delta Blood Glucose (mM), Mean: 0.1 mM
[3]; 96 hr post treatment, @ 3 nM s.c., n = 6 study
  Delta Blood Glucose (mM), Mean: -0.3 mM
[3]; 96 hr post treatment, @ 6 nM s.c., separate study n = 5
  Delta Blood Glucose (mM), Mean: 2.1 mM
GLP-1R
  EC50: 4.1 nM
[4]
  reduction in HbA1c on day 29 more than the reduction on day 14: more than 40%
[5]; 0 hr (baseline)
  Delta Blood Glucose (mM), Mean: 0.0 mM
[5]
  Body Wt. Change (%) 96 hr. vs. Baseline, Mean: −4.2*** %
  Cumulative food Intake (g) 96 hr. vs. Baseline, Mean: 12.3*** g
  blood glucose reduction post treatment (in words): statistically significant blood glucose reduction
[5]; 4 hr post treatment
  Delta Blood Glucose (mM), Mean: −13.1*** mM
[5]; 12 hr post treatment
  Delta Blood Glucose (mM), Mean: −11.7*** mM
[5]; 24 hr post treatment
  Delta Blood Glucose (mM), Mean: −8.2*** mM
[5]; 48 hr post treatment
  Delta Blood Glucose (mM), Mean: −6.0** mM
[5]; 72 hr post treatment
  Delta Blood Glucose (mM), Mean: -2.8 mM
[5]; 96 hr post treatment
  Delta Blood Glucose (mM), Mean: 0.6 mM
